According to patent US8791079B2, “Methods for treating heart failure by inhibiting the mitochondrial sodium-calcium exchanger (mNCE)” (priority 2009, dated 2014):
Where “and” joins values, the source holds several entries; their conditions need not be identical. Equal entries are not always repeated. Marks after values point to notes of the source that are not given here.

What was measured:
[1] = system: Guinea pig ventricular myocytes; assay: ROS / oxidative stress (CM-H2DCFDA, CM-DCF oxidation) in isolated myocytes; format: cell-based; conditions: 100-nM isoproterenol with 1-μM ouabain, without or with 1-μM CGP-37157; 1-Hz stimulation
Method: (§1) Guinea pig ventricular myocytes were isolated by enzymatic digestion as described previously. O'Rourke, B., et al., “Oscillations of membrane current and excitability driven by metabolic oscillations in heart cells,” Science, 265(5174):962-966 (Aug. 12, 1994). Cells were suspended in Dulbecco's Modification of Eagle's Medium (DMEM) supplemented with 5% fetal bovine serum, 1% penicillin/streptomycin, and 15 mmol/L HEPES, pH 7.4, and stored in a 5% CO2 incubator at 37° C.
(§2) Cytosolic Ca^2+ ([Ca^2+]c), mitochondrial Ca^2+ ([Ca^2+]m), and [Na^+]i were measured with the fluorescent indicators indo-1, rhod-2, and sodium-binding benzofuran isophthalate (SBFI), respectively (Invitrogen, Carlsbad, Calif.), and mitochondrial NADH was measured as the cellular autofluorescence with 360-nm excitation/450-nm emission. Indo-1 was loaded into cell with the membrane permeable form, indo-1 AM. To minimize indo-1 loading into the mitochondrial compartment, cells were briefly incubated with indo-1 AM at room temperature for 20 min. Rhod-2 and SBFI experiments were carried out as previously described. Maack et al., supra, Liu and O'Rourke, supra. […]
(§3) Isolated ventricular myocytes were loaded into a heated field-stimulation chamber (Warner Instruments, Hamden, Conn.) at 37° C. on the stage of a fluorescence microscope (Nikon Eclipse TE300, Nikon Instruments, Inc., Melville, N.Y.). […]

[2] = system: Guinea pig ventricular myocytes; assay: Action potentials and delayed afterdepolarizations in current-clamped myocytes; format: cell-based; conditions: for incidence of DAD-triggered APs: 100-nM isoproterenol, 1-μM ouabain without or with 1-μM CGP-37157, 1 Hz, last minute of stimulation
Method: as §1
(§4) Isolated ventricular myocytes were loaded into a heated field-stimulation chamber (Warner Instruments, Hamden, Conn.) at 37° C. on the stage of a fluorescence microscope (Nikon Eclipse TE300, Nikon Instruments, Inc., Melville, N.Y.). The myocytes were first superfused with control Tyrode's solution containing: NaCl (130 mmol/L), KCl (5 mmol/L), MgCl2 (1 mmol/L), Na-HEPES (10 mmol/L), CaCl2 (2 mmol/L), glucose (10 mmol/L), at pH 7.4. After one minute of recording in the absence of electrical stimulation in control buffer, 1-μM ouabain and 100-nM isoproterenol, with or without 1 μM CGP-37157, were added to buffer. After another five minutes of recording, myocytes were field-stimulated at 1 Hz for three minutes followed by a two-minute recording after returning to the resting state. To record [Ca^2+]m and action potentials, myocytes were whole-cell patch-clamped at 37° C. Tyrode's solution was used as external solution and the internal solution contained: NaCl (10 mmol/L), KCl (19 mmol/L), K-glutamate (125 mmol/L), MgCl2 (0.5 mmol/L), HEPES (10 mmol/L), MgATP (5 mmol/L), at pH 7.25.
In current-clamped myocytes, electrically-stimulated action potentials (APs) were recorded at 1 Hz and the probability of observing one or more delayed afterdepolarization-(DAD) triggered action potentials was determined during the last minute of stimulation.

Guinea pig hearts = assay: Arrhythmia score and ventricular fibrillation in isolated perfused hearts; conditions: without or with CGP-37157; for Incidence of VF: hearts with VF / hearts, ouabain treatment and isoproterenol stimulation; for arrhythmia score: ten-minute ouabain treatment (0.25 μM), modified Score A, 0-4
Text: Guinea pig hearts were quickly excised under anesthesia and mounted on a modified Langendorff apparatus attached to a Powerlab system (AD Instruments, Colorado Springs, Colo.). Hearts were perfused with gassed (95/5% O2/CO2) control buffer containing: 118-mM NaCl, 24-mM NaHCO3, 1.2-mM KH2PO4, 4.75-mM KCl, 1.2-mM MgSO4, 2.0-mM CaCl2, and 10-mM glucose. A buffer-filled latex balloon (Harvard apparatus) was inserted through the mitral valve into the left ventricle. Hearts were suspended in a buffer-filled heating chamber maintained at 37° C. and two electrodes were placed into the bath for volume-conducted electrocardiogram recordings. Heart rate, left ventricular developed pressure (LVDP), maximal rates of contraction and relaxation (±dP/dt), oxygen consumption, and electrocardiograms (ECG) were recorded on a computer. After a ten-minute equilibration period, hearts were subjected to the following protocol: ten-minute baseline recording while the heart was perfused with control buffer, ten-minute recording while 0.25-μM ouabain with or without 1 μM CGP-37157, and sixty-minute recording while hearts were stimulated with 25-nM isoproterenol. The measurements of hemodynamic parameters were determined by taking the average during the last two minutes before ouabain treatment (baseline) and for two minutes during the maximal effect on LVDP of either ouabain or isoproterenol.
Arrhythmias were characterized in accordance with the Lambeth Conventions, see Walker, M. J., et al., Cardiovasc. Res., 22(7):447-455 (July 1988), and scores were tabulated for the ten-minute period of ouabain treatment using modified Score A as described by Curtis, M. J. and Walker, M. J., “Quantification of arrhythmias using scoring systems: an examination of seven scores in an in vivo model of regional myocardial ischaemia,” Cardiovasc. Res., 22(9):656-665 (September 1988). Briefly, each heart was given a score based on the following criteria: 0: <50 ventricular premature beats; 1: 50-499 ventricular premature beats; 2: >500 ventricular premature beats and/or one episode of spontaneously reverting ventricular tachycardia or ventricular fibrillation; 3: more than one episode of spontaneously reverting ventricular tachycardia or fibrillation (<2 min); 4: >2 min of ventricular tachycardia or fibrillation.

[3] = system: Guinea pig ventricular myocytes; assay: Mitochondrial Ca2+ ([Ca2+]m, rhod-2) in patch-clamped myocytes; format: cell-based
Method: as §1, §2, §3

[4] = system: Guinea pig ventricular myocytes; assay: Cytosolic Ca2+ ([Ca2+]c, indo-1) cycling in isolated myocytes; format: cell-based; conditions: ouabain without or with CGP-37157; for diastolic [Ca2+]c before stimulation / diastolic [Ca2+]c after three minutes of stimulation / increase of amplitude of [Ca2+]c transient (Δ[Ca2+]c) compared to control: 100-nM isoproterenol; for diastolic [Ca2+]c before stimulation: before 1-Hz stimulation; for diastolic [Ca2+]c after three minutes of stimulation: end of 1-Hz stimulation; for increase of amplitude of [Ca2+]c transient (Δ[Ca2+]c) compared to control: midpoint of 1-Hz stimulation, control = isoproterenol only; for spontaneous Ca2+ oscillations / discordant contractions: prolonged stimulation
Method: as §1
Cytosolic Ca^2+ ([Ca^2+]c), mitochondrial Ca^2+ ([Ca^2+]m), and [Na^+]i were measured with the fluorescent indicators indo-1, rhod-2, and sodium-binding benzofuran isophthalate (SBFI), respectively (Invitrogen, Carlsbad, Calif.), and mitochondrial NADH was measured as the cellular autofluorescence with 360-nm excitation/450-nm emission. Indo-1 was loaded into cell with the membrane permeable form, indo-1 AM. To minimize indo-1 loading into the mitochondrial compartment, cells were briefly incubated with indo-1 AM at room temperature for 20 min. Rhod-2 and SBFI experiments were carried out as previously described. Maack et al., supra, Liu and O'Rourke, supra. Cytoplasmic rhod-2 was eliminated by using rhod-2-free patch pipettes. Maack et al., supra, Liu and O'Rourke, supra. The ROS-sensitive fluorescent probe 5-(−6)-chloromethyl-2′,7′-dichlorohydrofluorescein diacetate (CM-H2DCFDA) was used to monitor the extent of oxidative stress, as previously described. Aon, M. A., et al., “Synchronized whole cell oscillations in mitochondrial metabolism triggered by a local release of reactive oxygen species in cardiac myocytes,” J. Biol. Chem., 278(45):44735-44744 (Nov. 7, 2003). This probe is primarily localized in the mitochondrial matrix, see Aon et al., supra, and is oxidized by hydrogen peroxide to yield fluorescent CM-DCF, thus indirectly reporting mitochondrial superoxide production.
as §4

| SMILES | oxidation of CM-DCF (oxidative stress) [1] | incidence of DAD-triggered APs [2] | amplitude of DADs ([2]; ouabain plus CGP-37157 versus ouabain alone) | Incidence of VF (Guinea pig hearts) | Incidence of VF (Guinea pig hearts; listed as CGP) | arrhythmia score (Guinea pig hearts) | [Ca2+]m accumulation ([3]; 1 μM CGP-37157 with 1-μM ouabain + 100-nM isoproterenol, 1-Hz stimulation) | diastolic [Ca2+]c before stimulation [4] [nM] | diastolic [Ca2+]c after three minutes of stimulation [4] [nM] | increase of amplitude of [Ca2+]c transient (Δ[Ca2+]c) compared to control [4] [%] | spontaneous Ca2+ oscillations / discordant contractions [4] | increase of diastolic [Ca2+]m during 1-Hz stimulation ([3]; 1-μM ouabain + 100-nM isoproterenol) [%] |
| --- | --- | --- | --- | --- | --- | --- | --- | --- | --- | --- | --- | --- |
| O=C1CSC(c2ccccc2Cl)c2cc(Cl)ccc2N1 (centres unmarked) [CGP-37157, 7-chloro-5-(2-chlorophenyl)-1,5-dihydro-4,1-benzothiazepin-2(3H)-one] | abolished the increase in oxidative stress induced by ouabain | not significantly different from controls | smaller amplitude than in ouabain alone | 2 out of 7 | 2/7* | 1.1±0.4 | significantly enhanced [Ca^2+]m accumulation | 99 ± 14 | 370 ± 60 | 74 | significantly reduced the incidence of discordant contractions |  |
| C[C@@H]1O[C@@H](O[C@H]2C[C@@H](O)[C@]3(CO)[C@H]4[C@H](O)C[C@]5(C)[C@@H](C6=CC(=O)OC6)CC[C@]5(O)[C@@H]4CC[C@]3(O)C2)[C@H](O)[C@H](O)[C@H]1O [ouabain, 1β,3β,5β,11α,14,19-Hexahydroxycard-20(22)-enolide 3-(6-deoxy-α-L-mannopyranoside, reference compound] | higher rates of oxidation of CM-DCF | significant increase in the incidence of DAD-triggered APs |  | 7 out of 8 and 7/8 |  | 2.7±0.5 |  | 123 ± 9 | 750 ± 142 | 112 | developed spontaneous Ca^2+ oscillations, extrasystolic contractions, and eventual hypercontracture | < 10 |
